Experimental findings from patent US11230543B2, “Biaryl monobactam compounds and methods of use thereof for the treatment of bacterial infections” (priority 2015, dated 2022) are described below.

Structures can show the parent of a compound that is named as a salt.

In experiment [1] the test system is Klebsiella pneumoniae expressing KPC-1 (CL6569). Description: Antibiotic activity: growth inhibitory concentration (OD600), Klebsiella pneumoniae CL6569. The settings on record: lowest concentration inhibiting 95% of bacterial growth; in the presence of β lactamase inhibitor Relebactam 4 μg/mL; 35±2° C. for 22 hours; tested range 100 μM to 0.098 μM. It is filed as cell-based. The procedure: (§1) Antibiotic Activity: Determination of Growth Inhibitory Concentration
(§2) The concentrations of compounds required to inhibit the growth of various strains of bacteria were determined in an assay that assessed bacterial growth by measuring optical density at 600 nm (OD600). The bacterial strains tested included the clinical strains Escherichia coli expressing NDM-1 (CLB30016), Klebsiella pneumoniae expressing KPC-1 (CL6569), Acinetobacter baumannii expressing TEM-1, AmpC, and Oxa-24/40 (CL6188) and Pseudomonas aeruginosa expressing AmpC (CL5701). All compounds were tested in the presence of a β lactamase inhibitor (BLi, Relebactam) in 384-well microplates. The clinical strains were stored as frozen single use stocks, thawed and diluted into 1.1× cation-adjusted Mueller-Hinton II broth to achieve approximately 2×10^5 CFU/mL. Test compounds were dissolved in DMSO and diluted 1:50 in the assay, resulting in a final concentration range of 100 μM to 0.098 μM. On the day of the assay, 1 μL of test compound was added to the plate followed by 4 μL of 50 μg/mL BLi in MOPS buffer and 45 μL of diluted bacteria. Plates were centrifuged at 1000 rpm for 30 seconds, shaken at approximately 800 rpm for 1 minute, and incubated at 35±2° C. for 22 hours. The concentration of BLi used in the assay was 4 μg/mL. At the end of the incubation, absorbance at 600 nm was determined using a spectrophotometer. Inhibition was quantitated by identifying the lowest concentration of test compound that was required to inhibit 95% of the growth of the bacteria. The results for Examples 1-126 are reported in Table I, expressed as the concentration of compound that inhibited 95% of bacterial growth (Minimum Inhibitory Threshold Concentration; MITC95).

Experiment [2] concerns Pseudomonas aeruginosa expressing AmpC (CL5701). Description: Antibiotic activity: growth inhibitory concentration (OD600), Pseudomonas aeruginosa CL5701. It is filed as cell-based. The settings on record: lowest concentration inhibiting 95% of bacterial growth; in the presence of β lactamase inhibitor Relebactam 4 μg/mL; 35±2° C. for 22 hours; tested range 100 μM to 0.098 μM. Here is the method:
as §1, §2

Regarding `C[n+]1cc(-c2ccc(OC[C@](C)(O/N=C(\C(=O)N[C@@H]3C(=O)N(OS(=O)(=O)O)C3(C)C)c3csc(N)n3)C(=O)O)cc2)cn1CCCN` [Example 39, (S)-3-((Z)-2-((((S)-1-(4-(1-(3-aminopropyl)-2-methyl-1H-pyrazol-2-ium-4-yl)phenoxy)-2-carboxypropan-2-yl)oxy)imino)-2-(2-aminothiazol-4-yl)acetamido)-2,2-dimethyl-4-oxoazetidin-1-yl sulfate], the “KP_CL6569 MITC95” value in experiment [1] worked out at 0.3255 µM. In experiment [2], the “PA_CL5701 MITC95” value was 3.125 µM.
Taken in the same sequence, the figures for `Cn1c(-c2ccc(OC[C@H](O/N=C(\C(=O)N[C@@H]3C(=O)N(OS(=O)(=O)O)C3(C)C)c3csc(N)n3)C(=O)O)cc2)cn(CCCN)c1=NCCN` (stereo in doubt) [Example 57, (S)-3-(4-((Z)-2-((2-aminoethyl)imino)-1-(3-aminopropyl)-3-methyl-2,3-dihydro-1H-imidazol-4-yl)phenoxy)-2-((((Z)-1-(2-aminothiazol-4-yl)-2-(((S)-2,2-dimethyl-4-oxo-1-(sulfooxy)azetidin-3-yl)amino)-2-oxoethylidene)amino)oxy)propanoic acid] were 0.1953 µM and 3.125 µM.
Taken in the same sequence, the figures for `C[n+]1c(N)c(-c2ccc(OC[C@H](O/N=C(\C(=O)N[C@@H]3C(=O)N(OS(=O)(=O)[O-])C3(C)C)c3csc(N)n3)C(=O)O)cc2F)cn1CCCN` [Example 47, (S)-3-((Z)-2-(((S)-2-(4-(3-Amino-1-(3-aminopropyl)-2-methyl-1H-pyrazol-2-ium-4-yl)-3-fluorophenoxy)-1-carboxyethoxy)imino)-2-(2-aminothiazol-4-yl)acetamido)-2,2-dimethyl-4-oxoazetidin-1-yl sulfate] were 0.3906 µM and 3.125 µM.
Taken in the same sequence, the figures for `CC1(C)[C@H](NC(=O)/C(=N\O[C@@H](COc2ccc(-c3cnc(NCCN)nc3)cc2)C(=O)O)c2csc(N)n2)C(=O)N1OS(=O)(=O)O` [Example 70, (S)-3-(4-(2-((2-aminoethyl)amino)pyrimidin-5-yl)phenoxy)-2-((((Z)-1-(2-aminothiazol-4-yl)-2-(((S)-2,2-dimethyl-4-oxo-1-(sulfooxy)azetidin-3-yl)amino)-2-oxoethylidene)amino)oxy)propanoic acid] were 0.7813 µM and 6.25 µM.
Take `C[n+]1cc(-c2ccc(OC(CO/N=C(\C(=O)N[C@@H]3C(=O)N(OS(=O)(=O)[O-])C3(C)C)c3csc(N)n3)C(=O)O)cc2)cn1CCCN` (stereo partly drawn) [Example 84, (3S)-3-((2-(4-(1-(3-aminopropyl)-2-methyl-1H-pyrazol-2-ium-4-yl)phenoxy)-2-carboxyethoxy)imino)-2-(2-aminothiazol-4-yl)acetamido)-2,2-dimethyl-4-oxoazetidin-1-yl sulfate]: in experiment [1], the “KP_CL6569 MITC95” value was 2.5 µM. Also, the “PA_CL5701 MITC95” value in experiment [2] worked out at 40 µM.
Taken in the same sequence, the figures for `C[n+]1cc(-c2ccc(OC[C@H](O/N=C(\C(=O)N[C@@H]3C(=O)N(OS(=O)(=O)[O-])C3(C)C)c3nsc(N)n3)C(=O)O)cc2)cn1CCCN` [Example 12, (S)-3-((Z)-2-(5-Amino-1,2,4-thiadiazol-3-yl)-2-(((S)-2-(4-(1-(3-aminopropyl)-2-methyl-1H-pyrazol-2-ium-4-yl)phenoxy)-1-carboxyethoxy)imino)acetamido)-2,2-dimethyl-4-oxoazetidin-1-yl sulfate] were 0.3906 µM and 3.125 µM.
The corresponding values for `C[n+]1cc(-c2ccc(OC[C@](C)(O/N=C(\C(=O)N[C@@H]3C(=O)N(OS(=O)(=O)O)C3(C)C)c3csc(N)n3)C(=O)O)cc2)cn1CCCN` (single isomer, unassigned) [Example 23B, 2,2,2-trifluoroacetate] are 3.125 µM and 25 µM.
The corresponding values for `C[C@@H](COc1ccc(-c2ccc(NCCN)[n+](C)c2)cc1)O/N=C(\C(=O)N[C@@H]1C(=O)N(OS(=O)(=O)O)C1(C)C)c1csc(N)n1` [Example 90, (S)-3-((Z)-2-((((S)-1-(4-(6-((2-aminoethyl)amino)-1-methylpyridin-1-ium-3-yl)phenoxy)propan-2-yl)oxy)imino)-2-(2-aminothiazol-4-yl)acetamido)-2,2-dimethyl-4-oxoazetidin-1-yl sulfate] are 1.563 µM and 25 µM.
In the case of `CC1(C)[C@H](NC(=O)/C(=N\OCCOc2ccc(-c3cnn(CCCN)c3)cc2)c2csc(N)n2)C(=O)N1OS(=O)(=O)O` [Example 5, (S,Z)-3-(2-((2-(4-(1-(3-aminopropyl)-1H-pyrazol-4-yl)phenoxy)ethoxy)imino)-2-(2-aminothiazol-4-yl)acetamido)-2,2-dimethyl-4-oxoazetidin-1-yl sulfate], the “KP_CL6569 MITC95” value in experiment [1] is 6.25 µM. Also, in experiment [2], the “PA_CL5701 MITC95” value turned out to be 50 µM.
The corresponding values for `CC1(C)[C@H](NC(=O)/C(=N\O[C@@H](COc2ccc(Nc3nccn3CCCN)nc2)C(=O)O)c2csc(N)n2)C(=O)N1OS(=O)(=O)O` [Example 37A, 3-(2-((5-((S)-2-((((Z)-1-(2-aminothiazol-4-yl)-2-(((S)-2,2-dimethyl-4-oxo-1-(sulfooxy)azetidin-3-yl)amino)-2-oxoethylidene)amino)oxy)-2-carboxyethoxy)pyridin-2-yl)amino)-1H-imidazol-1-yl)propan-1-aminium 2,2,2-trifluoroacetate] are 0.78 µM and 3.13 µM.
The corresponding values for `CC1(C)[C@H](NC(=O)/C(=N\O[C@@H](COc2ccc(Nc3cc[n+](CC4CNC4)cc3)nc2)C(=O)O)c2csc(N)n2)C(=O)N1OS(=O)(=O)[O-]` [Example 108, (S)-3-((Z)-2-(2-aminothiazol-4-yl)-2-(((S)-2-((6-((1-(azetidin-3-ylmethyl)pyridin-1-ium-4-yl)amino)pyridin-3-yl)oxy)-1-carboxyethoxy)imino)acetamido)-2,2-dimethyl-4-oxoazetidin-1-yl sulfate] are 0.7813 µM and 12.5 µM.
The corresponding values for `CC1(C)[C@H](NC(=O)/C(=N\O[C@@H](COc2ccc(-c3ccnc(NCCCN)c3)cc2)C(=O)O)c2csc(N)n2)C(=O)N1OS(=O)(=O)O` [Example 64, (S)-3-((Z)-2-(((S)-2-(4-(2-((3-aminopropyl)amino)pyridin-4-yl)phenoxy)-1-carboxyethoxy)imino)-2-(2-aminothiazol-4-yl)acetamido)-2,2-dimethyl-4-oxoazetidin-1-yl sulfate] are 1.563 µM and 12.5 µM.
In the case of `C[n+]1cc(-c2ccc(OC[C@H](O/N=C(\C(=O)N[C@@H]3C(=O)N(OS(=O)(=O)[O-])C3(C)C)c3csc(N)n3)C(=O)O)cc2)ccc1NCC1(N)CC1` [Example 74, (S)-3-((Z)-2-(((S)-2-(4-(6-(((1-aminocyclopropyl)methyl)amino)-1-methylpyridin-1-ium-3-yl)phenoxy)-1-carboxyethoxy)imino)-2-(2-aminothiazol-4-yl)acetamido)-2,2-dimethyl-4-oxoazetidin-1-yl sulfate], the “KP_CL6569 MITC95” value in experiment [1] amounted to 0.1953 µM. Also, the “PA_CL5701 MITC95” value in experiment [2] came out at 6.25 µM.
For `CC1(C)[C@H](NC(=O)/C(=N\O[C@@H](COc2ccc(Oc3cc[n+](CCCN)cc3)nc2)C(=O)O)c2csc(N)n2)C(=O)N1OS(=O)(=O)O.O=C([O-])C(F)(F)F` [Example 34, 1-(3-aminopropyl)-4-((5-((S)-2-((((Z)-1-(2-aminothiazol-4-yl)-2-(((S)-2,2-dimethyl-4-oxo-1-(sulfooxy)azetidin-3-yl)amino)-2-oxoethylidene)amino)oxy)-2-carboxyethoxy)pyridin-2-yl)oxy)pyridin-1-ium 2,2,2-trifluoroacetate], in experiment [1], the “KP_CL6569 MITC95” value turned out to be 0.78 µM. The “PA_CL5701 MITC95” value in experiment [2] amounted to 25 µM.
The corresponding values for `Cc1c(-c2ccc(OC[C@H](O/N=C(\C(=O)N[C@@H]3C(=O)N(OS(=O)(=O)O)C3(C)C)c3csc(N)n3)C(=O)O)cc2)c(C)[n+](C)n1CCCN.O=C([O-])C(F)(F)F` [Example 20, 1-(3-aminopropyl)-4-(4-((S)-2-((((Z)-1-(2-aminothiazol-4-yl)-2-(((S)-2,2-dimethyl-4-oxo-1-(sulfooxy)azetidin-3-yl)amino)-2-oxo-ethylidene)amino)oxy)-2-carboxyethoxy)phenyl)-2,3,5-trimethyl-1H-pyrazol-2-ium 2,2,2-trifluoroacetate] are 0.3906 µM and 6.25 µM.
The corresponding values for `CC1(C)[C@H](NC(=O)/C(=N\O[C@@H](COc2ccc(-c3cn(CCCN)cn3)cc2)C(=O)O)c2csc(N)n2)C(=O)N1OS(=O)(=O)O` [Example 10, (S)-3-(4-(1-(3-Aminopropyl)-1H-imidazol-4-yl)phenoxy)-2-((((Z)-1-(2-aminothiazol-4-yl)-2-(((S)-2,2-dimethyl-4-oxo-1-(sulfooxy)azetidin-3-yl)amino)-2-oxoethylidene)amino)oxy)propanoic acid] are 0.3906 µM and 6.25 µM.
